Reference: ChEMBL document CHEMBL1144900, “Synthesis and SAR of thrombin inhibitors incorporating a novel 4-amino-morpholinone sscaffold: analysis of X-ray crystal structure of enzyme inhibitor complex” (J Med Chem, 2003)

Target: Prothrombin (Homo sapiens, UniProt P00734)
Experiment: Inhibitory activity against human thrombin

IC50 [µM]	SMILES
10.6	N=C(N)c1ccc(CNC(=O)C[C@@H]2OCCN(NCc3ccccc3)C2=O)cc1
35.6	N=C(N)c1ccc(CNC(=O)C[C@H]2OCCN(NCCc3ccccc3)C2=O)cc1
1.79	N=C(N)c1ccc(CNC(=O)C[C@@H]2OCCN(NCCc3ccccc3)C2=O)cc1
4.88	N=C(N)c1ccc(CNC(=O)CC2OCCN(Nc3ccc(-c4ccccc4)cc3)C2=O)cc1 (stereo not given)
13.6	N=C(N)c1ccc(CNC(=O)C[C@H]2OCCN(NCc3ccccc3)C2=O)cc1
9.15	N=C(N)c1ccc(CNC(=O)C[C@@H]2OCCN(NS(=O)(=O)Cc3ccccc3)C2=O)cc1
0.13	COc1ccc(OC)c(S(=O)(=O)NN2CCOC(CC(=O)NCc3ccc(C(=N)N)cc3)C2=O)c1 (stereo not given)
19.8	N=C(N)c1ccc(CNC(=O)CC2OCCN(N(Cc3ccccc3)Cc3ccccc3)C2=O)cc1 (stereo not given)
36.2	N=C(N)c1ccc(CNC(=O)C[C@H]2OCCN(N(CCCc3ccccc3)CCCc3ccccc3)C2=O)cc1
150	N=C(N)c1ccc(CNC(=O)C[C@H]2OCCN(NC(=O)c3ccc(N)cc3)C2=O)cc1
8.14	N=C(N)c1ccc(CNC(=O)CC2OCCN(NS(=O)(=O)c3ccc(F)cc3F)C2=O)cc1 (stereo not given)
106	N=C(N)c1ccc(CNC(=O)C[C@H]2OCCN(NC(=O)c3ccccc3)C2=O)cc1
4.74	N=C(N)c1ccc(CNC(=O)C[C@@H]2OCCN(NCCCc3ccccc3)C2=O)cc1
37.7	N=C(N)c1ccc(CNC(=O)C[C@H]2OCCN(NS(=O)(=O)c3ccccc3)C2=O)cc1
0.247	Cc1ccc(C)c(S(=O)(=O)NN2CCOC(CC(=O)NCc3ccc(C(=N)N)cc3)C2=O)c1 (stereo not given)
45.4	N=C(N)c1ccc(CNC(=O)C[C@H]2OCCN(NCCCc3ccccc3)C2=O)cc1
0.486	N=C(N)c1ccc(CNC(=O)CC2OCCN(NS(=O)(=O)c3ccc4c(c3)CCO4)C2=O)cc1 (stereo not given)
34.4	N=C(N)c1ccc(CNC(=O)CC2OCCN(Nc3ccccc3)C2=O)cc1 (stereo not given)
> 32	N=C(N)c1ccc(CNC(=O)CC2OCCN(Nc3cccc(N)c3)C2=O)cc1 (stereo not given)
0.164	Cc1cc(S(=O)(=O)NN2CCOC(CC(=O)NCc3ccc(C(=N)N)cc3)C2=O)c(C)cc1Cl (stereo not given)
36.8	N=C(N)c1ccc(CNC(=O)C[C@H]2OCCN(NS(=O)(=O)Cc3ccccc3)C2=O)cc1
54.7	CC(C)(C)OC(=O)NN1CCO[C@H](CC(=O)NCc2ccc(C(=N)N)cc2)C1=O
80.6	CC(C)OC(=O)NN1CCO[C@H](CC(=O)NCc2ccc(C(=N)N)cc2)C1=O
0.961	Cc1ccc(CCNN2CCOC(CC(=O)NCc3ccc(C(=N)N)cc3)C2=O)cc1 (stereo not given)
> 133	N=C(N)c1ccc(CNC(=O)C[C@H]2OCCN(NCC(=O)c3ccccc3)C2=O)cc1
